Assay results as given in patent US12679860B2, “C-terminal HSP90 inhibitors” (UNIVERSITY OF KANSAS, priority 2012, dated 2026).
Read-outs that look alike come from different tables or passages of the source.

What was measured:
[1] = test system: embryonic dorsal root ganglion (DRG) sensory neuron cultures; test: Glucotoxicity assay: cell viability (calcein AM) of DRG sensory neurons under glucose-induced toxicity; type: cell-based, Sprague Dawley rat; settings: for EC50: 0.1-1000 nM novologue overnight, then 4 hrs of hyperglycemia, mean±SEM (n=3-8), read-out: EC50 for protection against glucose-induced toxicity; for viability at 1 µM: Table 1, 1 μM of each novologue + 20 mM excess glucose, glucose + DMSO was 54% ± 2
Procedure: DRG sensory neurons were incubated in the absence or presence of 0.1-1000 nM of the indicated novologue overnight and then subjected to 4 hrs of hyperglycemia.
The ganglia were sedimented at 1,000×g for 5 min, resuspended in growth media [phenol red free Neurobasal medium (Gibco, Grand Island, NY) containing 25 mM glucose, 1X B-27 additive, 50 ng/ml NGF (Harlan Bioscience, Indianapolis, IN), 4 mM glutamine, 100 U/mL penicillin and 100 μg/mL streptomycin] and triturated with a fire-polished glass pipette. The cells were cultured on collagen-coated (0.1 mg/mL collagen followed by overnight air drying in a laminar flow hood) black-walled 96-well plates (Corning Incorporated Corning, NY) at a seeding density of 2-3×10^4 cells per well. DRG neurons were re-fed the next day with fresh growth media containing 40 μM fluorodeoxyuridine and 10 μM cytosine β-D-arabinoside (both from Sigma Aldrich, St. Louis, MO) for 2 days to remove proliferating cells. Experiments were performed on DRG neurons on the third day in culture after placing the cells in fresh growth medium. […]
DRG neurons were incubated overnight with the test compounds in the presence of Neurobasal medium, 50 ng/ml NGF and antibiotics only. In order to monitor the efficiency of the compounds in protecting DRG neurons against glucotoxicity, Calcein AM (Invitrogen, Carlsbad, CA) was utilized to measure cell viability. Hydrolysis of calcein AM to a fluorescent product can only occur in live cells. Excess glucose was added to the cultures for 4 hrs and cell viability was measured by incubating the cells with 2 μM calcein AM for 30 min in the dark at 37° C. Fluorescence was then measured using a plate reader with excitation and emission wavelengths set to 485 nm and 520 nm, respectively. The arbitrary fluorescence readings were normalized to the total amount of protein from each respective well of the neuronal cultures. The protein concentrations in each well were determined using the DC protein assay (Bio-Rad). Significant differences in the efficacy of the novologues for increasing cell viability were determined using a Kruskal-Wallis non-parametric ANOVA and Dunn's post-test.

[2] = test system: myelinated cultures of sensory neurons prepared from Hsp70.1 and 70.3 double knockout mice; settings: sensory neurons from Hsp70.1 and 70.3 double knockout mice; cited from earlier work
diabetic mice = settings: weekly treatment, cited from earlier work
Hsp70 = test: Immunoblot analysis of induction of Hsp70 in DRG sensory neurons; type: cell-based, Sprague Dawley rat; settings: 24 hours incubation, then 4 hours of glucotoxic stress; Hsp70 normalized to β-actin
Procedure: DRG sensory neurons were incubated in the presence of DMSO (Cntrl) or 10-1000 nM of the indicated novologue overnight and then subjected to 4 hrs of hyperglycemia. The neurons were harvested and Hsp70 and β-actin levels were determined by immunoblot analysis. Band intensity was quantified using Image J, Hsp70 expression was normalized to the level of β-actin.
Since it was previously shown that the cytoprotective activity manifested by KU-32 requires Hsp70, the ability of 11b and 11n to induce Hsp70 was determined relative to KU-32. Increasing concentrations of KU-32, 11n, and 11b were incubated with DRG sensory neurons for 24 hours before the cells were subjected to 4 hours of glucotoxic stress. Hsp70 levels were examined by performing immunoblot analysis with the cellular lysates (FIG. 5). 11n and 11b induced Hsp70 levels at similar concentrations (10 nM) as those needed for neuroprotection.
DRG from embryonic day 15-18 Sprague Dawley rat pups were harvested into Leibovitz's L15 medium (L15) and dissociated with 0.25% trypsin for 30 min at 37° C. […]

| Structure (SMILES) | EC50 [1] | prevention of neuregulin-induced demyelination [2] | reversal of clinical indices of DPN (diabetic mice; diabetic Hsp70 knockout mice) | sensory and motor nerve function (diabetic mice; diabetic wild type mice) | EC50 ([1]; Rattus norvegicus, Neuron) | viability at 1 µM ([1]; Rattus norvegicus, Neuron) | concentration at which Hsp70 levels were induced (Hsp70) | protection against glucose-induced toxicity (in words) ([1]; 1 μM novologue + 20 mM excess glucose) |
| --- | --- | --- | --- | --- | --- | --- | --- | --- |
| CO[C@@H]1[C@@H](O)[C@@H](O)[C@H](Oc2ccc3cc(NC(C)=O)c(=O)oc3c2C)OC1(C)C [KU-32] | 240 ± 42.5 nM | ineffective | unable to reverse multiple clinical indices of DPN | restored normal sensory and motor nerve function |  |  |  |  |
| CO[C@@H]1[C@@H](O)[C@@H](O)C(Oc2ccc(CCNC(C)=O)c(-c3ccc4c(c3)OCO4)c2)OC1(C)C (stereo partly drawn) [11n, N-(2-(benzo[d][1,3]dioxol-5-yl)-4-(((3R,4S,5R)-3,4-dihydroxy-5-methoxy-6,6-dimethyltetrahydro-2H-pyran-2-yl)oxy)phenethyl)acetamide] |  |  |  |  | 18.4 ± 3.2 nM | 83% | 10 nM |  |
| CO[C@@H]1[C@@H](O)[C@@H](O)C(Oc2ccc(CCNC(C)=O)c(-c3cccc(F)c3)c2)OC1(C)C (stereo partly drawn) [11b, N-(2-(5-(((3R,4S,5R)-3,4-dihydroxy-5-methoxy-6,6-dimethyltetrahydro-2H-pyran-2-yl)oxy)-3′-fluoro-[1,1′-biphenyl]-2-yl)ethyl)acetamide] |  |  |  |  | 13 ± 3.6 nM | 95% | 10 nM | showed significant protection against glucotoxicity |
